Structures can show the parent of a compound that is named as a salt. Where two headings read alike, the source gives them in different places. Where only a bound is given, the exact number is not on record here.

The subject of the assay is amyloid β production in transfected H4 (human neuroglioma) cells stably expressing APP constructs. Nature of the assay: In vitro cell-based assay of inhibitors of amyloid β production (ELISA). To be noted: amyloid β in medium by ELISA, read-out: ACTIVITY (IC50, inhibition of amyloid β production). An outline of the steps:
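Aβ secreted into the medium was determined by a two-antibody ELISA specific for the Aβ C-terminus, calibrated with known Aβ amounts. Before that, compounds (10-100 μM initially) were left on the cells for roughly 16 hours.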

The mark [1] stands for this setting: Homo sapiens, 16 h, transfected H4 cells stably expressing APP, approximately 16 hours incubation.
[2] abbreviates: Homo sapiens, 16 h, transfected H4 cells stably expressing APP constructs, approximately 16 hours incubation.
Setting [3] is: Homo sapiens, 16 h, transfected H4 cells expressing APP, approximately 16 hours incubation.
The mark [4] stands for this setting: transfected H4 cells stably expressing APP, approximately 16 hours incubation.
Setting [5] is: Homo sapiens, 16 h, transfected H4 cells stably expressing APP, approx. 16 h incubation.
[6] abbreviates: transfected H4 cells stably expressing APP, approx. 16 h incubation.

As to `O=S(=O)(c1ccc(Cl)cc1)N(Cc1ccccc1OCCCCCN1CCCCC1)c1ccccc1` [Example 976, 4-chloro-N-phenyl-N-(2-{[5-(1-piperidinyl)pentyl]oxy}benzyl)benzenesulfonamide hydrochloride], under setting [1], the IC50 is over 500 nM.

Turning to `CN(C)CCCOc1ccccc1CN(c1ccccc1)S(=O)(=O)c1ccccc1[N+](=O)[O-]` [Example 1084, N-{2-[3-(dimethylamino)propoxy]benzyl}-2-nitro-N-phenylbenzenesulfonamide], the IC50 under setting [2] was over 10000 nM.

Turning to `C[C@H](C(=O)NC[C@@H]1CC[C@H]2C[C@@H]1C2(C)C)N(c1cc(Cl)ccc1F)S(=O)(=O)c1ccc(Cl)cc1` [Example 1323], under setting [3], the IC50 was over 500 nM.

In the case of “(2R)-2-{[(4-chlorophenyl)sulfonyl]-2,5-difluoroanilino}propyl nicotinate [Example 1058]”, the IC50 under setting [4] is over 500 nM.

Turning to `CC1CC(C)CN(CCCOc2ccccc2CN(c2ccccc2)S(=O)(=O)c2ccc(Cl)cc2)C1` (stereo not drawn) [Example 303, 4-Chloro-N-{2-[3-(3,5-dimethyl-1-piperidinyl)propoxy]benzyl}-N-phenylbenzenesulfonamide Hydrochloride], for the setting “transfected H4 cells stably expressing APP, approximately 16 hours incubation, Table B”, the IC50 is 50 to 100 nM.

As to `C[C@H](CCC[N+](=O)[O-])N(c1cc(Cl)ccc1F)S(=O)(=O)c1ccc(Cl)cc1` [Example 1107, 4-chloro-N-(5-chloro-2-fluorophenyl)-N-[4-nitro-1(R)-methylbutyl]benzenesulfonamide], the IC50 under setting [2] was at most 25 nM.

As for `O=C(c1ccc(-c2ccccc2)cc1)N1CCCCC1CCOc1ccccc1CN(c1cc(F)ccc1F)S(=O)(=O)c1ccc(Cl)cc1` (stereo not drawn) [Example 845, N-(2-{2-[1-([1,1′-biphenyl]-4-ylcarbonyl)-2-piperidinyl]ethoxy}benzyl)-4-chloro-N-(2,5-difluorophenyl)benzenesulfonamide], the concentration for half-maximal inhibition (IC50) under setting [1] was 100 to 500 nM.

Regarding `O=C(c1cccc2ccccc12)N1CCCCC1CCOc1ccccc1CN(c1cc(F)ccc1F)S(=O)(=O)c1ccc(Cl)cc1` (stereo not drawn) [Example 792, 4-chloro-N-(2,5-difluorophenyl)-N-(2-{2-[1-(1-naphthoyl)-2-piperidinyl]ethoxy}benzyl)benzenesulfonamide], the IC50 under setting [5] lay within 100 to 500 nM.

Regarding `CCN(CCOc1ccccc1C(C)N(c1cc(F)ccc1F)S(=O)(=O)c1ccc(Cl)cc1)C(=O)NC(C)C` (stereo not drawn) [Example 725, 4-chloro-N-(2,5-difluorophenyl)-N-{1-[2-(2-{ethyl[(isopropylamino)carbonyl]amino}ethoxy)phenyl]ethyl}benzenesulfonamide], the IC50 under setting [5] was in the range of 100 to 500 nM.

In the case of `CC(C)(O)C#Cc1ccccc1CN(c1ccccc1)S(=O)(=O)c1ccc(Cl)cc1` [Example 1086, 4-chloro-N-[2-(3-hydroxy-3-methyl-1-butynyl)benzyl]-N-phenylbenzenesulfonamide], the IC50 under setting [2] was over 10000 nM.

Turning to “2-((1R)-1-{[(4-chlorophenyl)sulfonyl]-2,5-difluoroanilino}ethyl)benzyl isopropylcarbamate [Example 674]”, the IC50 under setting [6] lay within 100 to 500 nM.

Regarding `C[C@H](C(=O)NC1CCCCC1)N(c1cc(Cl)ccc1F)S(=O)(=O)c1ccc(Cl)cc1` [Example 1308], the IC50 under setting [3] fell in the range of 100 to 500 nM.

`C[Si](C)(C)C#Cc1ccccc1CN(c1ccccc1)S(=O)(=O)c1ccc(Cl)cc1` [Example 1087, 4-chloro-N-phenyl-N-{2-[(trimethylsilyl)ethynyl]benzyl}benzenesulfonamide]: the IC50 (Homo sapiens, transfected H4 cells stably expressing APP constructs, approximately 16 hours incubation) was over 10000 nM.

In the case of `C[C@H](CCCS(=O)(=O)N1CCC1)N(c1cc(Cl)ccc1Cl)S(=O)(=O)c1ccc(Cl)cc1` [Example 1198, 4-chloro-N-[2,5-dichlorophenyl]-N-[4-[(1-azetidinyl)sulfonyl]-1(R)-methylbutyl]benzenesulfonamide], under setting [2], the IC50 was at most 25 nM.

In the case of `CS(=O)(=O)c1ccccc1N(Cc1ccccc1OCCCN1CCCCC1)S(=O)(=O)c1ccc(Cl)cc1` [Example 1027, 4-chloro-N-[2-(methylsulfonyl)phenyl]-N-{2-[3-(1-piperidinyl)propoxy]benzyl}benzenesulfonamide hydrochloride], the IC50 under setting [1] is over 500 nM.

In the case of `C[C@H](C(=O)NCc1cccc(I)c1)N(c1cc(Cl)ccc1F)S(=O)(=O)c1ccc(Cl)cc1` [Example 1330], under setting [3], the IC50 was over 500 nM.

Consider `O=S(=O)(c1ccc(Cl)cc1)N(Cc1ccccc1OCCCN1CCCC1)c1ccccc1` [Example 718, 4-chloro-N-phenyl-N-{2-[3-(1-pyrrolidinyl)propoxy]benzyl}benzenesulfonamide hydrochloride], for which the IC50 under setting [5] was 100 to 500 nM.

With “4-bromo-N-{3-[2-(1-{[(4-chlorophenyl)sulfonyl]-2,5-difluoroanilino}ethyl)phenoxy]propyl}-N-methylbenzamide [Example 683]”, under setting [6], the IC50 fell in the range of 100 to 500 nM.

Turning to `O=C(c1ccc(F)c(F)c1F)N1CCCCC1CCOc1ccccc1CN(c1cc(F)ccc1F)S(=O)(=O)c1ccc(Cl)cc1` (stereo not drawn) [Example 797, 4-chloro-N-(2,5-difluorophenyl)-N-(2-{2-[1-(2,3,4-trifluorobenzoyl)-2-piperidinyl]ethoxy}benzyl)benzenesulfonamide], the IC50 under setting [5] lay within 100 to 500 nM.

In the case of `CN1CCCC1CCOc1ccccc1CN(c1ccccc1)S(=O)(=O)c1ccc(Cl)cc1` (stereo not drawn) [Example 962, 4-chloro-N-{2-[2-(1-methyl-2-pyrrolidinyl)ethoxy]benzyl}-N-phenylbenzenesulfonamide hydrochloride], the IC50 under setting [1] is over 500 nM.

As for `O=C(c1ccc(F)cc1)N1CCCCC1CCOc1ccccc1CN(c1cc(F)ccc1F)S(=O)(=O)c1ccc(Cl)cc1` (stereo not drawn) [Example 946, 4-chloro-N-(2,5-difluorophenyl)-N-(2-{2-[1-(4-fluorobenzoyl)-2-piperidinyl]ethoxy}benzyl)benzenesulfonamide], under setting [1], the half-maximal inhibitory concentration (IC50) was over 500 nM.

In the case of `O=C1CCC(=O)N1CCCOc1ccccc1CN(c1cc(F)ccc1F)S(=O)(=O)c1ccc(Cl)cc1` [Example 399, 4-chloro-N-(2,5-difluorophenyl)-N-{2-[3-(2,5-dioxo-1-pyrrolidinyl)propoxy]benzyl}benzenesulfonamide], under “Homo sapiens, 16 h, transfected H4 cells stably expressing APP, approximately 16 hours incubation, Table B”, the IC50 lay within 50 to 100 nM.

For the molecule `O=S(=O)(c1ccc(Cl)cc1)N(Cc1ccccc1OCCCN1CCCCC1)c1cccc(Cl)c1` [Example 663, 4-chloro-N-(3-chlorophenyl)-N-{2-[3-(1-piperidinyl)propoxy]benzyl}benzenesulfonamide hydrochloride], the IC50 under setting [5] is 100 to 500 nM.

Turning to `CC(C)Oc1c(NCC[C@@H](C)N(c2cc(F)ccc2F)S(=O)(=O)c2ccc(Cl)cc2)c(=O)c1=O` [Example 1125, 4-chloro-N-(2,5-difluorophenyl)-N-[3-(2-isopropoxy-3,4-dioxo-1-cyclobutenyl)amine-1(R)-methylpropyl]benzenesulfonamide], where the note is “transfected H4 cells stably expressing APP constructs, approximately 16 hours incubation”, the IC50 lay in the range of 50 to 100 nM.

On to “methyl 3-[2-((1R)-1-{[(4-chlorophenyl)sulfonyl]-2,5-difluoroanilino}ethyl)-5-fluorophenyl]propanoate [Example 1065]”, for which the IC50 under setting [4] is over 500 nM.

Turning to `O=S(=O)(c1ccc(Cl)cc1)N(Cc1ccccc1OCCCN1CCCCC1)c1ccc(Br)cc1` [Example 988, N-(4-bromophenyl)-4-chloro-N-{2-[3-(1-piperidinyl)propoxy]benzyl}benzenesulfonamide hydrochloride], under setting [1], the IC50 was over 500 nM.

In the case of `C[C@H](CCCN1CCSC1C(=O)O)N(c1cc(Cl)ccc1Cl)S(=O)(=O)c1ccc(Cl)cc1` (stereo partly drawn) [Example 1103, 4-chloro-N-(2,5-dichlorophenyl)-N-[4-(2-carboxy-3-thiazolidinyl)-1(R)-methylbutyl]benzenesulfonamide], the IC50 under setting [2] is at most 25 nM.

The values above are taken from patent publication US6967196B1, “Sulfonamide compounds and uses thereof” (Bristol-Myers Squibb Company, priority 1999, dated 2005).
